The nature of data set [1]: Stability / precipitation of sunitinib solutions. It is filed as physicochemical. The source says:
However, preparing drug-loaded beads is not a straightforward procedure, especially if they should be loaded with chemotherapeutic agents of low solubility in aqueous media. This solubility can be insufficient to reach useful therapeutic dose, such as for sorafenib tosylate. In the case where apparent solubility is sufficient to reach useful therapeutic dose, it may appear that some delayed precipitation occurs; making impossible the utilization of such preparation in a clinic setup. For example, sunitinib base or malate can be dissolved in standard media used for loading anthracycline drugs, such as doxorubicine. […] In addition, no liquid oral or parenteral solution of any sunitinib salt is commercially available, that could be used to load DEBs. […] WO 2007/090897 further discloses a method for loading beads with water insoluble chemotherapeutic agents by using organic solvents. However, such an approach is not adequate for extemporaneous preparation by the medical staff.
Advantageously, this solution is isotonic to human plasma and it is safe for the parenteral applications. Noteworthy, the sugar is not limited to glucose. Other sugars or polyol could be used such as sucrose, dextran, mannitol, sorbitol or trehalose.

The conditions of data set [2]: cited from earlier work.
The nature of data set [3]: Liver enzymes after administration in healthy rabbits. As to conditions: sunitinib p.o., unique dose of 6 mg, healthy rabbit.
Experimental: Adult healhy male New Zealand White Rabbits (n=12) weighing between 3.2-2.8 kgs were used.
DC Beads measuring between 100-300 μm (Biocompatibles) were used.
Animals were separated in 3 groups.
Liver enzymes were measured from blood samples obtained by a catheter placed in the vein of the rabbit's ear, immediately before embolization or oral administration of the drug and 6 hours.
The conditions of data set [4]: sunitinib per os, unique dose of 6 mg, rabbit; according to previous pharmacological studies (FDA); cited from earlier work.

Regarding `CCN(CC)CCNC(=O)c1c(C)[nH]c(/C=C2\C(=O)Nc3ccc(F)cc32)c1C` [sunitinib malate], the precipitation in solution result in data set [1] (standard media used for loading anthracycline drugs) was “precipitate within a short period of time”.
In the case of `CCN(CC)CCNC(=O)c1c(C)[nH]c(/C=C2\C(=O)Nc3ccc(F)cc32)c1C` [sunitinib], the plasma concentrations entry in data set [2] (approved starting oral dose 50 mg/day) is on record as “at least 50 ng/ml”. Further, in data set [2] (oral sunitinib therapy), the “patients with serious (grade 3 or 4) adverse events” value is ≤ 10%. Further, in data set [2] (patients treated for RCC), the “patients requiring dose reductions” value was 50%. Moreover, in data set [3], the liver enzymes result is on record as “did not cause any alteration”. Moreover, in data set [4], the “therapeutic plasmatic concentration (Cmax)” value is 45 to 55 ng/mL. Also, in data set [1] (HPLC analysis, sunitinib loaded DC beads preparation), the “stability of the drug” value is “verified”. For the same compound, the “stability of sunitinib solution (precipitation)” value in data set [1] (in presence of sugar, 5% glucose, in contrast to saline or hydrochloric acid solutions) is recorded as “stable, without any precipitation”.

The values are drawn from US10537643B2, “Chemoembolization composition comprising anti-angiogenic agents” (CENTRE HOSPITALIER UNIVERSITAIRE VAUDOIS, priority 2010, dated 2020).
